Patent US8420682B2, “N-phenylacetamide derivatives, which inhibit the enzyme SOAT-1, and pharmaceutical and cosmetic compositions containing them” (Galderma Research & Development, priority 2009, dated 2013)

Target: T1, enzyme ACAT-1 (Homo sapiens, UniProt P35610)
T1 construct: endogenous in cells; host or cells: HepG2
T1 sequence (P35610 1-550): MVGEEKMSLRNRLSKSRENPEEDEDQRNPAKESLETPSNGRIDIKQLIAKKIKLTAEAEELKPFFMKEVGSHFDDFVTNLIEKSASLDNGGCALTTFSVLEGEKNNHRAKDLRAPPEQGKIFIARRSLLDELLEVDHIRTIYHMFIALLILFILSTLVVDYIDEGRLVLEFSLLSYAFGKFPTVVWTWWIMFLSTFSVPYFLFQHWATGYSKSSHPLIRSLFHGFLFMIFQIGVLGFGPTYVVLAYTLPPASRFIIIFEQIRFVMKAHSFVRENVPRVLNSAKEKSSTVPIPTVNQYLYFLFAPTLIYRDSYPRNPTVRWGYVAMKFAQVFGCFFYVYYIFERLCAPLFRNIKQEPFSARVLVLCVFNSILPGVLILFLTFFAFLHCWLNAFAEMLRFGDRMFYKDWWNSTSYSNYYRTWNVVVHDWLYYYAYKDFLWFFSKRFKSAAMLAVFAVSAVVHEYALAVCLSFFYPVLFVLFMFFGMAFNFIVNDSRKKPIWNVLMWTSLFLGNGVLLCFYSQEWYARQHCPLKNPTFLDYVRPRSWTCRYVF
Assay: HepG2 NBD-cholesterol fluorescence test for inhibitory activity towards the enzyme ACAT-1 (SOAT-1)
Assay type: cell-based
Conditions: HepG2 cells, NBD-cholesterol 1 μg/ml, incubation 6 hours at 37° C., fluorescence read (excitation 490 nm, emission 540 nm)
Protocol: The compounds (I) according to the invention, and also the pharmaceutically acceptable salts, solvates and/or hydrates thereof, have inhibitory properties on the enzyme SOAT-1. This inhibitory activity on the enzyme SOAT-1 is measured according to a HepG2 primary […] test, as described in Example 7.
The compounds of formula (I) according to the invention were subjected to a test for evaluating their inhibitory activity towards the enzyme ACAT-1, inspired by the following publication: “Identification of ACAT1- and ACAT2-specific inhibitors using a novel, cell based fluorescence assay: individual ACAT uniqueness”, J. Lipid. Res. (2004) vol. 45, pages 378-386.
The principle of this test is based on the use of NBD-cholesterol, a cholesterol analogue whose fluorescence depends on its environment. When this molecule is in a polar environment, it is weakly fluorescent, whereas in a non-polar environment it is strongly fluorescent. Free NBD-cholesterol becomes inserted in cell membranes and is weakly fluorescent in this polar environment. When NBD-cholesterol is esterified with ACAT, the NBD-cholesterol ester enters non-polar lipid droplets and is then strongly fluorescent.
The method below is applied: HepG2 cells are incubated in the presence of NBD-cholesterol (1 μg/ml) and of the test compound of formula (I) in black transparent-bottomed 96-well plates, at a rate of 30 000 cells per well. After incubation for 6 hours at 37° C. under 5% CO2, the medium is removed by turning upside-down and the cells are washed with twice 100 μl of PBS. After addition of 50 μl of lysis buffer (10 mM NaPO4, 1% Igepal), the plates are shaken for 5 minutes and the fluorescence is read (excitation at 490 nm, emission at 540 nm) on a Fusion machine (Perkin-Elmer).

Going from `CC(C)c1cccc(C(C)C)c1NC(=O)CN1C(=O)N(c2ccc(C#N)cc2)C2(CCCCC2)C1=O` [Compound 2, 2-[1-(4-Cyanophenyl)-2,4-dioxo-1,3-diaza-spiro[4.5]dec-3-yl]-N-(2,6-diisopropylphenyl)acetamide] to `CSc1ccc(N2C(=O)N(CC(=O)Nc3c(C(C)C)cccc3C(C)C)C(=O)C23CCCCC3)cc1` [Compound 4, N-(2,6-diisopropylphenyl)-2-[1-(4-methylsulfanyl-phenyl)-2,4-dioxo-1,3-diazaspiro[4.5]dec-3-yl]acetamide], the IC50 falls from 77 nM to 1.5 nM (51-fold). The second is the more potent here.

First: CC(C)c1cccc(C(C)C)c1NC(=O)CN1C(=O)N(c2ccc(S(C)(=O)=O)cc2)C2(CCCCC2)C1=O [Compound 5, N-(2,6-Diisopropylphenyl)-2-[1-(4-methanesulfonylphenyl)-2,4-dioxo-1,3-diaza-spiro[4.5]dec-3-yl]acetamide]
Second: CCOC(=O)c1ccc(N2C(=O)N(CC(=O)Nc3c(C(C)C)cccc3C(C)C)C(=O)C23CCCCC3)cc1 [Compound 1, 4-{3-[(2,6-Diisopropylphenylcarbamoyl)-methyl]-2,4-dioxo-1,3-diazaspiro[4.5]dec-1-yl}benzoic acid ethyl ester]
The IC50 of the first is 13-fold higher: 31 nM for the first, 2.4 nM for the second. The second is the more potent here.

Work on `Cc1ccc(N2C(=O)N(CC(=O)Nc3c(C(C)C)cccc3C(C)C)C(=O)C23CCCCC3)cc1C#N` [Compound 3, 2-[1-(3-cyano-4-methylphenyl)-2,4-dioxo-1,3-diaza-spiro[4.5]dec-3-yl]-N-(2,6-diisopropylphenyl)acetamide] yielded an IC50 of 2.5 nM.
